The values below are quoted from earlier work in patent US10792293B2, “Topical nanodrug formulation” (priority 2015, dated 2020).

As for `CC(=O)S[C@@H]1CC2=CC(=O)CC[C@]2(C)[C@H]2CC[C@@]3(C)[C@@H](CC[C@@]34CCC(=O)O4)[C@H]12` [Spironolactone, spironolactone], the solubility in water entry is on record as “about 2.8 mg/100 ml”.
